Measurements reported in PMC10302047, “Structure–Activity Relationship Studies of Indolglyoxyl-Polyamine Conjugates as Antimicrobials and Antibiotic Potentiators” (Pharmaceuticals, 2023).
≈ marks a conversion by molar mass, not a printed value. Read-outs that look alike come from different tables or passages of the source. Marks after values point to notes of the source that are not given here.

Columns and labels:
MRSA ATCC 43300 = assay: Antimicrobial susceptibility (MIC), MRSA; assay type: cell-based; conditions: Staphylococcus aureus; MRSA ATCC 43300; mean (n = 2); read-out: MIC MRSA
Experimental: (§1) The susceptibility of bacterial strains S. aureus (ATCC 25923), E. coli (ATCC 25922) and P. aeruginosa (ATCC 27853) to antibiotics and compounds was determined according to previously reported protocols. Additional antimicrobial evaluation against MRSA (ATCC 43300) and C. albicans (ATCC 90028) was undertaken at the Community for Open Antimicrobial Drug Discovery at The University of Queensland (Australia) according to their standard protocols as reported previously.

human red blood cells = assay: Hemolytic assay; assay type: cell-based; conditions: mean (n = 2)
Experimental: Hemolysis assays were conducted according to previously reported protocols.

S. aureus ATCC 25923 [1] = conditions: S. aureus ATCC 25923; ref Cadelis et al. [16]; cited from earlier work
P. aeruginosa ATCC 27853 [2] = system: P. aeruginosa ATCC 27853; design: method as in Cadelis et al. [16]; conditions: ref Cadelis et al. [16]; cited from earlier work
E. coli ATCC 25922 [3] = system: E. coli ATCC 25922; design: method as in Cadelis et al. [16]; conditions: ref Cadelis et al. [16]; cited from earlier work
C. albicans ATCC 90028 [4] = system: C. albicans ATCC 90028; design: method as in Cadelis et al. [16]; conditions: ref Cadelis et al. [16]; cited from earlier work
[5] = system: HEK293 (human embryonic kidney cells); conditions: HEK293; ref Cadelis et al. [16]; read-out: Cyto. IC50 (concentration of compound at 50% cytotoxicity); cited from earlier work
P. aeruginosa ATCC 27853 [6] = conditions: doxycycline at 2 µg/mL (4.5 µM), P. aeruginosa ATCC 27853; ref Cadelis et al. [16]; cited from earlier work
S. aureus ATCC 25923 [7] = assay: Antimicrobial susceptibility (MIC), S. aureus; assay type: cell-based, Staphylococcus aureus; conditions: Staphylococcus aureus, ATCC25923; S. aureus ATCC 25923; mean (n = 3)
Experimental: as §1

P. aeruginosa ATCC 27853 [8] = assay: Antimicrobial susceptibility (MIC), P. aeruginosa; assay type: cell-based; conditions: Pseudomonas aeruginosa, ATCC27853, mean (n = 3), read-out: MIC P. a
Experimental: as §1

E. coli ATCC 25922 [9] = assay: Antimicrobial susceptibility (MIC), E. coli; assay type: cell-based; conditions: Escherichia coli, ATCC25922, mean (n = 3)
Experimental: as §1

C. albicans ATCC 90028 [10] = assay: Antifungal susceptibility (MIC), C. albicans; assay type: cell-based; conditions: Candida albicans, ATCC90028, mean (n = 2)
Experimental: as §1

[11] = Cytotoxicity assay HEK293; assay type: cell-based, human; conditions: human, HEK293 cells, mean (n = 2), read-out: Cyto. IC50 (concentration of compound at 50% cytotoxicity)
Experimental: Cytotoxicity assays were conducted according to previously reported protocols.

P. aeruginosa ATCC 27853 [12] = assay: Antibiotic potentiation (MIC of antibiotics in the presence of synergizing compounds), P. aeruginosa; assay type: cell-based, Pseudomonas aeruginosa; conditions: concentration required to restore doxycycline activity at 2 µg/mL (4.5 µM) against P. aeruginosa ATCC 27853

Compound | MIC (MRSA ATCC 43300) | MIC (S. aureus ATCC 25923 [7]) | MIC (P. aeruginosa ATCC 27853 [8]) | MIC (E. coli ATCC 25922 [9]) | MIC (C. albicans ATCC 90028 [10]) | Hem. HC10 (concentration of compound at 10% hemolytic activity) (human red blood cells) | MIC S. a (S. aureus ATCC 25923 [1]) | MIC P. a (P. aeruginosa ATCC 27853 [2]) | MIC E. c (E. coli ATCC 25922 [3]) | MIC C. a (C. albicans ATCC 90028 [4]) | IC50 [5] | Conc (µM) for Potentiation of doxycycline (P. aeruginosa ATCC 27853 [6]) | IC50 [11] | Conc (µM) for Potentiation of doxycycline (P. aeruginosa ATCC 27853 [12])
O=C(NCCCNCCCCNCCCNC(=O)C(=O)c1c[nH]c2ccccc12)C(=O)c1c[nH]c2ccccc12 [Compound 2] | 41.4 µM (≈ 22.5 µg/mL) |  |  |  |  | >41 µM | >100 ^h µM | >100 ^h µM | >100 ^h µM | >41.4 ^h µM | > 41 µM |  |  | 
O=C(NCCCNCCCCNCCCNC(=O)C(=O)c1c[nH]c2ccc(Br)cc12)C(=O)c1c[nH]c2ccc(Br)cc12 [Compound 3] | 4.32 µM (≈ 3.03 µg/mL) |  |  |  |  | >34 µM | 3.125 ^h µM | 50 ^h µM | 25 ^h µM | >34.4 ^h µM | 14 µM | 3.125 ^b µM |  | 
COc1ccc2[nH]cc(C(=O)C(=O)NCCCNCCCCNCCCNC(=O)C(=O)c3c[nH]c4ccc(OC)cc34)c2c1 [Compound 4] | 38.4 µM (≈ 23.2 µg/mL) |  |  |  |  | >38 µM | 100 ^h µM | >200 ^h µM | >200 ^h µM | >38.4 ^h µM | > 38 µM | 12.5 ^b µM |  | 
Cc1ccc2[nH]cc(C(=O)C(=O)NCCCNCCCCNCCCNC(=O)C(=O)c3c[nH]c4ccc(C)cc34)c2c1 [Compound 5] | 20 µM (≈ 11.5 µg/mL) |  |  |  |  | >40 µM | 25 ^h µM | 100 ^h µM | 200 ^h µM | >40.0 ^h µM | > 40 µM | 6.25 ^b µM |  | 
O=C(NCCCNCCCCNCCCNC(=O)C(=O)c1c[nH]c2c(F)cccc12)C(=O)c1c[nH]c2c(F)cccc12 [Compound 6] | 19.8 µM (≈ 11.5 µg/mL) |  |  |  |  | >40 µM | 25 ^h µM | 200 ^h µM | 200 ^h µM | >39.6 ^h µM | 19 µM | 3.125 ^b µM |  | 
COc1cccc2c(C(=O)C(=O)NCCCNCCCCNCCCNC(=O)C(=O)c3c[nH]c4c(OC)cccc34)c[nH]c12 [Compound 7] | 38.4 µM (≈ 23.2 µg/mL) |  |  |  |  | >38 µM | 15 ^h µM | >200 ^h µM | >200 ^h µM | 38.4 ^h µM | 27 µM | 3.75 ^b µM |  | 

The next lines start with results.

MIC (MRSA ATCC 43300) | MIC (S. aureus ATCC 25923 [7]) | MIC (P. aeruginosa ATCC 27853 [8]) | MIC (E. coli ATCC 25922 [9]) | MIC (C. albicans ATCC 90028 [10]) | Compound | Hem. HC10 (concentration of compound at 10% hemolytic activity) (human red blood cells) | MIC S. a (S. aureus ATCC 25923 [1]) | MIC P. a (P. aeruginosa ATCC 27853 [2]) | MIC E. c (E. coli ATCC 25922 [3]) | MIC C. a (C. albicans ATCC 90028 [4]) | IC50 [5] | Conc (µM) for Potentiation of doxycycline (P. aeruginosa ATCC 27853 [6]) | IC50 [11] | Conc (µM) for Potentiation of doxycycline (P. aeruginosa ATCC 27853 [12])
18.5 µM | 29 µM | > 200 µM | > 200 µM | > 37 µM | O=C(NCCCNCCCCCCCCNCCCNC(=O)C(=O)c1c[nH]c2c(F)cccc12)C(=O)c1c[nH]c2c(F)cccc12.O=C(O)C(F)(F)F.O=C(O)C(F)(F)F [Compound 21c, N^1,N^8-Bis(3-(2-(7-fluoro-1H-indol-3-yl)-2-oxoacetamido)propyl)octane-1,8-diaminium 2,2,2-trifluoroacetate] | >37 µM |  |  |  |  |  |  | 9.2 µM | 58 µM
4.48 µM | 3.12 µM | > 200 µM | 6.25 µM | 36 µM | O=C(NCCCNCCCCCCCCCCNCCCNC(=O)C(=O)c1c[nH]c2c(F)cccc12)C(=O)c1c[nH]c2c(F)cccc12.O=C(O)C(F)(F)F.O=C(O)C(F)(F)F [Compound 21d, N^1,N^10-Bis(3-(2-(7-fluoro-1H-indol-3-yl)-2-oxoacetamido)propyl)decane-1,10-diaminium 2,2,2-trifluoroacetate] | >36 µM |  |  |  |  |  |  | 4.7 µM | 100 µM
4.34 µM | 27.2 µM | > 220 µM | > 220 µM | 35 µM | O=C(NCCCNCCCCCCCCCCCCNCCCNC(=O)C(=O)c1c[nH]c2c(F)cccc12)C(=O)c1c[nH]c2c(F)cccc12.O=C(O)C(F)(F)F.O=C(O)C(F)(F)F [Compound 21e, N^1,N^12-Bis(3-(2-(7-fluoro-1H-indol-3-yl)-2-oxoacetamido)propyl)dodecane-1,12-diaminium 2,2,2-trifluoroacetate] | >35 µM |  |  |  |  |  |  | 6.4 µM | >200 µM
> 37 µM | 50 µM | 800 µM | 400 µM | > 37 µM | COc1cccc2c(C(=O)C(=O)NCCCNCCCCCCNCCCNC(=O)C(=O)c3c[nH]c4c(OC)cccc34)c[nH]c12.O=C(O)C(F)(F)F.O=C(O)C(F)(F)F [Compound 22a, N^1,N^6-Bis(3-(2-(7-methoxy-1H-indol-3-yl)-2-oxoacetamido)propyl)hexane-1,6-diaminium 2,2,2-trifluoroacetate] | >37 µM |  |  |  |  |  |  | > 37 µM | 100 µM
> 37 µM | 25 µM | 800 µM | 200 µM | > 37 µM | COc1cccc2c(C(=O)C(=O)NCCCNCCCCCCCNCCCNC(=O)C(=O)c3c[nH]c4c(OC)cccc34)c[nH]c12.O=C(O)C(F)(F)F.O=C(O)C(F)(F)F [Compound 22b, N^1,N^7-Bis(3-(2-(7-methoxy-1H-indol-3-yl)-2-oxoacetamido)propyl)heptane-1,7-diaminium 2,2,2-trifluoroacetate] | >37 µM |  |  |  |  |  |  | 8.9 µM | 100 µM
≤ 0.27 µM | 25 µM | 800 µM | 50 µM | 17 µM | COc1cccc2c(C(=O)C(=O)NCCCNCCCCCCCCCCNCCCNC(=O)C(=O)c3c[nH]c4c(OC)cccc34)c[nH]c12.O=C(O)C(F)(F)F.O=C(O)C(F)(F)F [Compound 22d, N^1,N^10-Bis(3-(2-(7-methoxy-1H-indol-3-yl)-2-oxoacetamido)propyl)decane-1,10-diaminium 2,2,2-trifluoroacetate] | 8.4 µM |  |  |  |  |  |  | > 35 µM | 400 µM
≤ 0.3 µM | 30.2 µM | > 240 µM | 60 µM | > 39 µM | Cc1cccc2c(C(=O)C(=O)NCCCNCCCCCCNCCCNC(=O)C(=O)c3c[nH]c4c(C)cccc34)c[nH]c12.O=C(O)C(F)(F)F.O=C(O)C(F)(F)F [Compound 23a, N^1,N^6-Bis(3-(2-(7-methyl-1H-indol-3-yl)-2-oxoacetamido)propyl)hexane-1,6-diaminium 2,2,2-trifluoroacetate] | >39 µM |  |  |  |  |  |  | > 39 µM | 60 µM
≤ 0.27 µM | 6.85 µM | > 220 µM | 13.7 µM | ≤ 0.27 µM | Cc1cccc2c(C(=O)C(=O)NCCCNCCCCCCCCCCCCNCCCNC(=O)C(=O)c3c[nH]c4c(C)cccc34)c[nH]c12.O=C(O)C(F)(F)F.O=C(O)C(F)(F)F [Compound 23e, N^1,N^12-Bis(3-(2-(7-methyl-1H-indol-3-yl)-2-oxoacetamido)propyl)dodecane-1,12-diaminium 2,2,2-trifluoroacetate] | 8.4 µM |  |  |  |  |  |  | > 35 µM | 220 µM
